Tests used:
in vitro [1] = settings: human, plasma
Description: Stability in human plasma assessed as half-life at 5 uM incubated for 120 mins by LC-MS/MS analysis

in vitro [2] = settings: rat, plasma
Description: Stability in rat plasma assessed as half-life at 5 uM incubated for 120 mins by LC-MS/MS analysis

in vitro [3] = settings: human, hepatocytes
Description: Metabolic stability in human hepatocytes assessed as clearance measured per 10^6 cells at 1 uM incubated for 90 mins by LC-MS/MS analysis

[4] = target: Beta-2 adrenergic receptor (Homo sapiens, UniProt P07550)
Description: Displacement of [125I]-Cyanopindolol from human beta2 adrenoceptor assessed as inhibition constant incubated for 1 hrs by Microbeta scintillation counter

in vitro [5] = settings: rat, hepatocytes
Description: Metabolic stability in rat hepatocytes assessed as clearance measured per 10^6 cells at 1 uM incubated for 90 mins by LC-MS/MS analysis

in vitro [6] = settings: guinea pig, plasma
Description: Stability in guinea pig plasma assessed as half-life at 5 uM incubated for 120 mins by LC-MS/MS analysis

Trachea = test: Inhibition of carbachol-induced smooth muscle contraction in male albino Dunkin-Hartley guinea pig trachea; settings: Cavia porcellus, read-out: pIC50 (converted)
[7] = target: Muscarinic acetylcholine receptor M3 (Homo sapiens, UniProt P20309)
Description: Displacement of Scopolamine methyl chloride,[N-methyl-3H] from human muscarinic M3 receptor assessed as inhibition constant incubated for 2 hrs by Microbeta scintillation counter

[8] = target: Muscarinic acetylcholine receptor M3 (Cavia porcellus, UniProt Q8VH26); test: Antagonist activity at M3 receptor in male albino Dunkin-Hartley guinea pig trachea assessed as inhibition of carbachol-induced smooth muscle contraction in presence of propranolol
[9] = target: Beta-2 adrenergic receptor (Cavia porcellus, UniProt Q8K4Z4); test: Agonist activity at beta2 adrenoceptor in male albino Dunkin-Hartley guinea pig trachea assessed as inhibition of histamine induced smooth muscle contraction
Chain of Beta-2 adrenergic receptor (Cavia porcellus, UniProt Q8K4Z4) (Q8K4Z4 whole entry): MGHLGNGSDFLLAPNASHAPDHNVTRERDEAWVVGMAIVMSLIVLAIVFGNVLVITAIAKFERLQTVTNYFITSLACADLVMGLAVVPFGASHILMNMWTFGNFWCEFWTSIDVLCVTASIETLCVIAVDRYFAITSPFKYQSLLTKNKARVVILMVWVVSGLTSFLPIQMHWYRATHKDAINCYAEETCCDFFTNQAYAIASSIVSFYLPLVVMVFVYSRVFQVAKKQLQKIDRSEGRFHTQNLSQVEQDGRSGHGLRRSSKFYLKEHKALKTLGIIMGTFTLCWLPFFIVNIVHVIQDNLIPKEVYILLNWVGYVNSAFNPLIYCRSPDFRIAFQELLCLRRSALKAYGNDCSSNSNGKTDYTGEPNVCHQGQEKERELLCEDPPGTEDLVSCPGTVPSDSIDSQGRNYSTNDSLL

Chain of Muscarinic acetylcholine receptor M3 (Cavia porcellus, UniProt Q8VH26) (Q8VH26 whole entry): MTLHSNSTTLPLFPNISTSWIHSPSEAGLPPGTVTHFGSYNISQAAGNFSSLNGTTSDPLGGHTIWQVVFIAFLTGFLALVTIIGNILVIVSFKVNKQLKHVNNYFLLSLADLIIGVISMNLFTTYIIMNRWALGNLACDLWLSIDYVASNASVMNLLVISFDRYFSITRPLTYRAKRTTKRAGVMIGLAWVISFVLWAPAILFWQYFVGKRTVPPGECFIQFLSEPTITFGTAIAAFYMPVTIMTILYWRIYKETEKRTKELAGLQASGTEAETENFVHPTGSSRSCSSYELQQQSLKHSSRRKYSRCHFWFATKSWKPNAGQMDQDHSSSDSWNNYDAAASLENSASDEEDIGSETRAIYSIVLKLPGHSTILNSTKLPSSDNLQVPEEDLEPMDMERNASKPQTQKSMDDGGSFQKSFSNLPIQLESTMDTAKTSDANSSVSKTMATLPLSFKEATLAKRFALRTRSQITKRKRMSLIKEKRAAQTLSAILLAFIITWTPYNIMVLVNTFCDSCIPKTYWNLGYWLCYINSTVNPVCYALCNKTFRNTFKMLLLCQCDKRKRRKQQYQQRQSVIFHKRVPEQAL
Chain of Muscarinic acetylcholine receptor M3 (Homo sapiens, UniProt P20309) (P20309 whole entry): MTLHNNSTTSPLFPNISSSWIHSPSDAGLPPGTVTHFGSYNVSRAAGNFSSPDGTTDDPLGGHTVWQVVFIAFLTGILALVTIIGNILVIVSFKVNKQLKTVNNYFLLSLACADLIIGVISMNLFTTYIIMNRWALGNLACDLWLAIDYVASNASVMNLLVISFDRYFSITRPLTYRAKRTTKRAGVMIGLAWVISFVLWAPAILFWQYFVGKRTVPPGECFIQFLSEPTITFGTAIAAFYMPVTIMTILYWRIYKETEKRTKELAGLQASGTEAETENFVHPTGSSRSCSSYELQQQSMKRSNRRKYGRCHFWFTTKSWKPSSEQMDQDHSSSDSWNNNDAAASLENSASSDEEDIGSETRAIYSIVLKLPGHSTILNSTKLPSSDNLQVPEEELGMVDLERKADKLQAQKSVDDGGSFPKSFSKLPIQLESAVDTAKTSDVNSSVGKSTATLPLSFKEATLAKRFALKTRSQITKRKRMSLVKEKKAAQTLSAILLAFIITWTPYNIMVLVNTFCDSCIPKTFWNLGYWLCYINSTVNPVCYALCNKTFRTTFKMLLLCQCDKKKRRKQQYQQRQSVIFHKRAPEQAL
Chain of Beta-2 adrenergic receptor (Homo sapiens, UniProt P07550) (P07550 whole entry): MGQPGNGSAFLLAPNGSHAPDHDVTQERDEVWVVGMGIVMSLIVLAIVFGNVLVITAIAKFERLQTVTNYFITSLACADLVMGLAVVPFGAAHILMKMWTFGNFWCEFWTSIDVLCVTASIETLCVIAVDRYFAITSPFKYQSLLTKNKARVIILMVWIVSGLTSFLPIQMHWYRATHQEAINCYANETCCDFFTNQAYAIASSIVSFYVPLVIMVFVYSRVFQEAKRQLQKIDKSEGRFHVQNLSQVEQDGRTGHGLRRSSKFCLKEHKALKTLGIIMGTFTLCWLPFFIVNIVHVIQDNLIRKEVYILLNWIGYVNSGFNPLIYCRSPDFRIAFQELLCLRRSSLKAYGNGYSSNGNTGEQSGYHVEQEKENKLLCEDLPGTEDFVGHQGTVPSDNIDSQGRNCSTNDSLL

Compound | half-life at 2 h, 5 µM (in vitro [1]) [h] | half-life at 2 h, 5 µM (in vitro [2]) [h] | hepatocyte CLint at 1.5 h, 1 µM (in vitro [3]) [µL/min/1e6 cells] | Ki [4] [nM] | hepatocyte CLint at 1.5 h, 1 µM (in vitro [5]) [µL/min/1e6 cells] | half-life at 2 h, 5 µM (in vitro [6]) [h] | IC50 (Trachea) [nM] | Ki [7] [nM] | IC50 [8] [nM] | IC50 [9] [nM]
COc1cc(C(=O)NCCCOc2cccc([C@](O)(C(=O)O[C@@H]3CCCN(C)C3)c3ccccc3)c2)c(F)cc1CNC[C@H](O)c1ccc(O)c2[nH]c(=O)ccc12 | > 2.5 | 1.45 | 7 | 0.0158 | 40 | > 2.5 | – | – | – | –
O=C(N[C@@H](c1ccccc1)c1cccc(OCc2cccc(C(=O)NCCCCNC[C@H](O)c3ccc(O)c4[nH]c(=O)ccc34)c2)c1)O[C@H]1CN2CCC1CC2 | – | – | – | 0.0126 | – | – | 0.794 | 0.0631 | 0.794 | 1
CN1CCC(COC(=O)[C@](O)(c2ccccc2)c2cccc(OCCCNC(=O)c3ccc(CNC[C@H](O)c4ccc(O)c5[nH]c(=O)ccc45)cc3)c2)CC1 | > 2.5 | 1.92 | < 2 | 0.0398 | 15 | 0.183 | – | 0.501 | – | –
O=C(NCCCCNC[C@H](O)c1ccc(O)c2[nH]c(=O)ccc12)c1ccc(C(=O)N2CCC(C(=O)O[C@H]3CN4CCC3CC4)(c3ccccc3)CC2)cc1 | – | – | – | 0.631 | – | – | – | 1.58 | – | –
COc1cc(C(=O)NCCCOc2cccc([C@](O)(C(=O)OCC3CCN(CC4CC4)CC3)c3ccccc3)c2)c(F)cc1CNC[C@H](O)c1ccc(O)c2[nH]c(=O)ccc12.O=CO.O=CO | > 2.5 | 0.25 | 9 | 0.316 | 47 | > 2.5 | – | 0.01 | – | –
O=C(c1ccc(CNC[C@H](O)c2ccc(O)c3[nH]c(=O)ccc23)cc1)N1CC(COc2cccc([C@](O)(C(=O)OCC3CCN(Cc4ccccc4)CC3)c3ccccc3)c2)C1 | > 2.5 | 0.833 | 16 | 1 | 22 | 0.317 | – | 1.26 | – | –
CN1CCC(COC(=O)[C@](O)(c2ccccc2)c2cccc(-c3ccc(CNC(=O)c4ccc(CNC[C@H](O)c5ccc(O)c6[nH]c(=O)ccc56)cc4)s3)c2)CC1 | > 2.5 | 1.47 | 27 | 0.398 | 21 | 0.8 | – | 2.51 | – | –
O=C(N[C@@H](c1ccccc1)c1cccc(OCc2ccc(C(=O)NCCCNC[C@H](O)c3ccc(O)c4[nH]c(=O)ccc34)cc2)c1)O[C@@H]1CN2CCC1CC2 | – | – | – | 0.0126 | – | – | 0.158 | 0.1 | 0.2 | 0.158
COc1cc(C(=O)NCCCOc2cccc([C@](O)(C(=O)O[C@@H]3CCCN(C)C3)c3ccccc3)c2)c(Cl)cc1CNC[C@H](O)c1ccc(O)c2[nH]c(=O)ccc12 | > 2.5 | 0.9 | 6 | 0.0251 | 36 | 2.22 | – | – | – | –
COc1cc(C(=O)NCCCOc2cccc([C@](O)(C(=O)O[C@@H]3CCCN(C)C3)c3ccccc3)c2)ccc1CNC[C@H](O)c1ccc(O)c2[nH]c(=O)ccc12 | > 2.5 | 0.283 | 4 | 0.0158 | 29 | 1.87 | – | – | – | –
O=C(NCCCOc1cccc([C@](O)(C(=O)OCC2CCN(C3CCC3)CC2)c2ccccc2)c1)c1ccc(CNC[C@H](O)c2ccc(O)c3[nH]c(=O)ccc23)cc1 | > 2.5 | 0.317 | 6 | 0.0251 | 38 | 1.98 | – | 1 | – | –
O=C(NCCCNC[C@H](O)c1ccc(O)c2[nH]c(=O)ccc12)c1ccc(COc2cccc([C@@](O)(C(=O)OCC3CCN(Cc4ccccc4)CC3)c3ccccc3)c2)cc1 | – | – | – | 0.0316 | – | – | 0.02 | 3.16 | 5.01 | 0.2
COc1cc(CNC[C@H](O)c2ccc(O)c3[nH]c(=O)ccc23)c(Cl)cc1C(=O)NCCCOc1cccc([C@](O)(C(=O)O[C@@H]2CCCN(C)C2)c2ccccc2)c1 | > 2.5 | 2.17 | 7 | 0.1 | 66 | > 2.5 | – | – | – | –
